Here are results for 19 compounds from patent US12686664B2, “SOCE inhibitors and therapeutic uses thereof” (Institut National de la Santé et de la Recherche Médicale …, priority 2020, dated 2026).

The subject of this test is store-operated Ca^2+ entry in PLP-B lymphocytes. In words: Store-operated Ca2+ entry after thapsigargin depletion of ER Ca2+ stores in PLP-B lymphocytes. It is filed as cell-based. On the procedure: The effects of the molecules developed were tested on PLP-B lymphocytes. Store-operated Ca^2+ entry was induced by depletion of Endoplasmic Reticulum Ca^2+ stores (ER Ca^2+ stores) with thapsigargin (Tg) in a Ca^2+-free medium and measured following the addition of 1.8 mM of CaCl2) in the extracellular medium. The results are compared to the results obtained for known SOCE inhibitors SKF-96365, GSK-7975A, Synta 66.

Setting [1] is: Lymphocyte, 10 μM, PLP-B lymphocytes, % of inhibition (−) or activation, DMSO control 100%, read-out: Effect on amplitude of SOCE Peak.
[2] abbreviates: Lymphocyte, 10 μM, thapsigargin (Tg) peak, PLP-B lymphocytes, % of inhibition (−) or activation, read-out: Effect on amplitude of Tg Peak.
[3] abbreviates: Lymphocyte, 50 μM, PLP-B lymphocytes, % of inhibition (−) or activation, DMSO control 100%, read-out: Effect on amplitude of SOCE Peak.
[4] abbreviates: Lymphocyte, 50 μM, thapsigargin (Tg) peak, PLP-B lymphocytes, % of inhibition (−) or activation, read-out: Effect on amplitude of Tg Peak.
[5] abbreviates: Lymphocyte, 100 μM, PLP-B lymphocytes, % of inhibition (−) or activation, DMSO control 100%, read-out: Effect on amplitude of SOCE Peak.
Where [6] appears, read: Lymphocyte, 100 μM, thapsigargin (Tg) peak, PLP-B lymphocytes, % of inhibition (−) or activation, read-out: Effect on amplitude of Tg Peak.
Where [7] appears, read: Lymphocyte, PLP-B lymphocytes, % of inhibition (−) or activation, DMSO control 100%, read-out: Effect on amplitude of SOCE Peak.
[8] abbreviates: Lymphocyte, thapsigargin (Tg) peak, PLP-B lymphocytes, % of inhibition (−) or activation, read-out: Effect on amplitude of Tg Peak.

Like-named read-outs stand apart in the source and are kept apart here. Marks after values point to notes of the source that are not given here.

Regarding “1-(4-(Methoxymethoxy)-2-(trifluoromethyl)-1H-benzo[d]imidazole [6αaf VAL3.33]”, the “Effect on amplitude of SOCE peak” value (10 μM, PLP-B lymphocytes, % of inhibition (−) or activation, DMSO control 100%) is recorded as 40.0# %; the “Effect on amplitude of SOCE peak” value (50 μM, PLP-B lymphocytes, % of inhibition (−) or activation, DMSO control 100%) worked out at 1.0%; the “Effect on amplitude of SOCE peak” value (100 μM, PLP-B lymphocytes, % of inhibition (−) or activation, DMSO control 100%) is −2.0%. Besides, the “Effect on amplitude of Tg Peak” value was −29.0# % (10 μM, thapsigargin (Tg) peak, PLP-B lymphocytes, % of inhibition (−) or activation); −34.0# % (50 μM, thapsigargin (Tg) peak, PLP-B lymphocytes, % of inhibition (−) or activation); −38.0# % (100 μM, thapsigargin (Tg) peak, PLP-B lymphocytes, % of inhibition (−) or activation).
Consider `COc1ccc(CCCOc2ccc(CCn3ncc4ccccc43)cc2)cc1` [6αaa DAD 4-574], for which the inhibition at 10 µM reads like this: under setting [1], 10.4%; under setting [2], 23.1%. Also, the inhibition at 50 µM under setting [3] is 16.4% and the inhibition at 50 µM under setting [4] came to 13.3%. Besides, the inhibition at 100 µM by setting is: under setting [5], 31.6%; under setting [6], 19.7%.
Turning to `c1ccc(CCOc2ccc(CCn3cnc4ccccc43)cc2)cc1` [6αab DAD 4-553], the inhibition at 50 µM by setting is: under setting [3], 2%; under setting [4], 1%. For the same compound, the inhibition at 100 µM came out at 46% under setting [5] and 8% under setting [6].
As for `c1ccc(CCCOc2ccc(CCn3ncc4ccccc43)cc2)cc1` [6αab DAD 4-575], the inhibition at 10 µM was -20.8% under setting [1] and 8.9% under setting [2]. Besides, the inhibition at 50 µM reads like this: under setting [3], 2.9%; under setting [4], 20.7%. The inhibition at 100 µM by setting is: under setting [5], 43.6%; under setting [6], 24.2%.
As for `COc1ccccc1CCOc1ccc(CCn2cnc3ccccc32)cc1` [6αac DAD 4-566], the inhibition at 0.1 µM under setting [7] is -12.9% and the inhibition at 0.1 µM under setting [8] is -2.3%. For the same compound, the inhibition at 1 µM runs as follows: under setting [7], -6.2%; under setting [8], 1.1%. Further, the inhibition at 10 µM is 31.1% under setting [1] and -9.6% under setting [2]. Further, the inhibition at 50 µM by setting is: under setting [3], 87.2%; under setting [4], -9%. In addition, the inhibition at 100 µM is, setting by setting: under setting [5], 84.3%; under setting [6], -13.2%. Further, the IC50 – broadly, the point on the concentration scale where inhibition reaches its midpoint – (Lymphocyte, SOCE in PLP-B lymphocytes, average of three assays, ±0.5 μM) is 13.5 µM.
As to `COc1cccc(CCOc2ccc(CCn3cnc4ccccc43)cc2)c1` [6αad DAD 4-567], the inhibition at 0.1 µM under setting [7] is -12.9%. Moreover, the inhibition at 1 µM runs as follows: under setting [7], -2.9%; under setting [8], 16.2%. For the same compound, the inhibition at 10 µM runs as follows: under setting [1], 28.1%; under setting [2], 5.7%. The inhibition at 50 µM under setting [3] stood at 81.7% and the inhibition at 50 µM under setting [4] came out at 9.1%. Further, under setting [5], the inhibition at 100 µM is 84.3%.
Regarding `COCOc1ccc(CCn2cnc3ccccc32)cc1` [6αad VAL3.31, 1-(4-(Methoxymethoxy)phenethyl)-1H-benzo[d]imidazole], the inhibition at 10 µM is, setting by setting: under setting [1], -51%; under setting [2], 10%. In addition, the inhibition at 50 µM was -54% under setting [3] and 9% under setting [4]. Also, the inhibition at 100 µM is -5% under setting [5] and 15% under setting [6].
Consider `c1ccc(OCCOc2ccc(CCn3cnc4ccccc43)cc2)cc1` [6αae DAD 4-569], for which the inhibition at 10 µM was -7.5% under setting [1] and 11.3% under setting [2]. Moreover, the inhibition at 50 µM under setting [3] was -13.1% and the inhibition at 50 µM under setting [4] is 7.6%. For the same compound, the inhibition at 100 µM reads like this: under setting [5], 12.4%; under setting [6], 12%.
For `COCOc1ccc(CCn2ncc3ccccc32)cc1` [6αae VAL3.32, 1-(4-(Methoxymethoxy)phenethyl)-1H-indazole], the inhibition at 10 µM was -39% under setting [1] and 26% under setting [2]. The inhibition at 50 µM is -23% under setting [3] and 19% under setting [4]. Also, the inhibition at 100 µM was found to be 24% under setting [5] and 27% under setting [6].
`COc1ccc(CCOc2ccc(CCn3ncc4ccccc43)cc2)cc1` [6αb DAD 4-573, 1-(4-(4-Methoxyphenethoxy)phenethyl)-1H-indazole]: the inhibition at 10 µM by setting is: under setting [1], -14%; under setting [2], 8%. In addition, the percent change in peak amplitude vs DMSO control (negative = inhibition, positive = activation) at 50 µM under setting [3] worked out at 0%. The inhibition at 50 µM under setting [4] was determined as 5%. In addition, the inhibition at 100 µM amounted to 30% under setting [5] and 22% under setting [6].
As to `COc1ccc(CCOc2ccc(CCn3c(C(F)(F)F)nc4ccccc43)cc2)cc1` [6αc DAD 4-546, 1-(4-(4-Methoxyphenethoxy)phenethyl)-2-trifluoromethyl-1H-benzo[d]imidazole], the inhibition at 50 µM stood at 30% under setting [3] and 18% under setting [4]. Besides, the inhibition at 100 µM is 26% under setting [5] and 18% under setting [6].
For the compound `Fc1ccc(CCOc2ccc(CCn3cnc4ccccc43)cc2)cc1` [6αd DAD 4-568], the inhibition at 10 µM reads like this: under setting [1], 7.8%; under setting [2], 8.5%. Also, the inhibition at 50 µM runs as follows: under setting [3], -1.3%; under setting [4], 5.3%. Moreover, the inhibition at 100 µM by setting is: under setting [5], 64%; under setting [6], 15.1%.
For the compound `COc1ccc(CCOc2ccc(CCn3cnc4c(Cl)cc(C(F)(F)F)cc43)cc2)cc1` [6αe DAD 4-548, 4-Chloro-1-(4-(4-methoxyphenethoxy)phenethyl)-6-(trifluoromethyl)-1H-benzo[d]imidazole], the inhibition at 50 µM is 28% under setting [3] and -5% under setting [4]. Moreover, the inhibition at 100 µM under setting [5] stood at 9% and the inhibition at 100 µM under setting [6] was -1%.
The matching figures for `c1ccc(CCCOc2ccc(CCn3cnc4ccccc43)cc2)cc1` [6αm DAD 3-475]: 4%, -7%, 77% and -7%.
For the compound `COc1ccc(CCOc2ccc(CCn3c(C(F)(F)F)nc4cc(N)ccc43)cc2)cc1` [6αm VAL 1-77], the inhibition at 10 µM was -4% under setting [1] and 1% under setting [2]. The inhibition at 50 µM under setting [3] is 12% and the inhibition at 50 µM under setting [4] worked out at 1%. The inhibition at 100 µM under setting [5] worked out at 55% and the inhibition at 100 µM under setting [6] amounted to 11%.
As for `COc1ccc(CCCOc2ccc(CCn3cnc4ccccc43)cc2)cc1` [6αn DAD 3-474], the inhibition at 1 µM is -1% under setting [7] and 11% under setting [8]. Further, the inhibition at 10 µM by setting is: under setting [1], -16%; under setting [2], 5%. In addition, the inhibition at 50 µM is, setting by setting: under setting [3], -4%; under setting [4], -5%. Moreover, the inhibition at 100 µM came out at 25% under setting [5] and 3% under setting [6].
As for `COc1ccc(CCOc2ccccc2CCn2cnc3ccccc32)cc1` [6αo DAD 4-551], the inhibition at 50 µM turned out to be 33% under setting [3] and 4% under setting [4]. Also, the inhibition at 100 µM under setting [5] was determined as 82% and the inhibition at 100 µM under setting [6] was -8%.
As to `COc1ccc(CCOc2cccc(CCn3cnc4ccccc43)c2)cc1` [6αp DAD 4-552], the inhibition at 50 µM under setting [3] was 29% and the inhibition at 50 µM under setting [4] worked out at 15%. Further, the inhibition at 100 µM amounted to 71% under setting [5] and 7% under setting [6].
On to `c1ccc(OCCCOc2ccc(CCn3cnc4ccccc43)cc2)cc1` [6αs DAD 4-570], for which the inhibition at 10 µM by setting is: under setting [1], 9.4%; under setting [2], 10.6%. The inhibition at 50 µM was 19% under setting [3] and -0.7% under setting [4]. Moreover, the inhibition at 100 µM is 56.9% under setting [5] and 4.1% under setting [6].
